For data set [1], the system named is Plasmodium falciparum. Put plainly: Antiplasmodial activity against chloroquine-resistant Plasmodium falciparum W2 after 48 hrs by YOYO-1 dye-based flow cytometry. It is filed as functional, organism-based. The note with it: W2, 48 h. Background: Flow cytometry measures light scatter and fluorescence of single cells or particles in a stream.
In data set [2] the test system is HeLa. Put plainly: Cytotoxicity against human HeLa cells assessed as reduction in cell viability after 24 hrs by trypan blue-based hemacytometer counting analysis.
Data set [3] in a line: Selectivity index, ratio of IC50 for human HeLa cells to IC50 for chloroquine-resistant Plasmodium falciparum W2. The class given is toxicity. Conditions: read-out: Ratio IC50.

Broadly, the IC50 is the concentration that gives 50% inhibition.

Bounds are passed on as bounds.

In data set [1], `COc1ccc(/C=C/C(=O)c2ccc(OCc3cn(CCCNc4ccnc5cc(Cl)ccc45)nn3)c(OC)c2)cc1OC` displayed an IC50 of 337 nM.

On to `COc1cccc2c1C(=O)c1c(O)c3c(c(O)c1C2=O)C[C@@](O)(C(=O)CO)C[C@@H]3O[C@H]1C[C@H](N)[C@H](O)[C@H](C)O1` [DOXORUBICIN], for which the IC50 in data set [2] came to 8300 nM.

For the compound `COc1ccc(/C=C/C(=O)c2ccc(OCc3cn(CCNc4ccnc5cc(Cl)ccc45)nn3)c(OC)c2)cc1OC`, the IC50 in data set [1] is 830 nM.

Consider `COc1ccc(/C=C/C(=O)c2ccc(OCc3cn(CCCNc4ccnc5cc(Cl)ccc45)nn3)c(OC)c2)cc1`, for which the half-inhibitory concentration (IC50) in data set [1] was over 10000 nM.

With `COc1ccc(/C=C/C(=O)c2ccc(OCc3cn(CCNc4ccnc5cc(Cl)ccc45)nn3)cc2)cc1OC`, the IC50 was found to be 141 nM in data set [1] and 12700 nM in data set [2]. The selectivity ratio in data set [3] was found to be 90.

As to `COc1cc(C2=NN(C(C)=O)C(c3ccccc3)C2)ccc1OCc1cn(CCCNc2ccnc3cc(Cl)ccc23)nn1` (stereo unspecified), the IC50 was found to be 77 nM in data set [1] and 46100 nM in data set [2]. Besides, the selectivity ratio in data set [3] was 598.

As to `COc1ccc(C2CC(c3ccc(OCc4cn(CCNc5ccnc6cc(Cl)ccc56)nn4)c(OC)c3)=NN2C(C)=O)cc1OC` (stereo unspecified), the IC50 in data set [1] was determined as 53.7 nM; in data set [2], 42700 nM. The selectivity ratio in data set [3] amounted to 795.

As to `COc1ccc(C2CC(c3ccc(OCc4cn(CCNc5ccnc6cc(Cl)ccc56)nn4)cc3)=NN2C(C)=O)cc1OC` (stereo unspecified), in data set [1], the IC50 was determined as 152 nM.

For `COc1ccc(/C=C/C(=O)c2ccc(OCc3cn(CCNc4ccnc5cc(Cl)ccc45)nn3)cc2)cc1`, the concentration for half-maximal inhibition (IC50) in data set [1] amounted to 114 nM; in data set [2], 35600 nM. Further, the selectivity ratio in data set [3] turned out to be 311.

`C[C@@H]1CC[C@H]2[C@@H](C)C(=O)O[C@@H]3O[C@@]4(C)CC[C@@H]1[C@]32OO4` [ARTEMISININ] returned an IC50 in data set [1] of 32.1 nM.

`COc1cc(/C=C/C(=O)c2ccc(OCc3cn(CCNc4ccnc5cc(Cl)ccc45)nn3)cc2)cc(OC)c1OC` came in with an IC50 in data set [1] of 175 nM.

The compound `COc1cc(C(=O)/C=C/c2ccccc2)ccc1OCc1cn(CCNc2ccnc3cc(Cl)ccc23)nn1` had an IC50 in data set [1] of 355 nM.

`COc1cc(C(=O)/C=C/c2ccccc2)ccc1OCc1cn(CCCNc2ccnc3cc(Cl)ccc23)nn1`: the IC50 in data set [1] was determined as 6960 nM.

Consider `COc1cc(/C=C/C(=O)c2ccc(OCc3cn(CCCNc4ccnc5cc(Cl)ccc45)nn3)cc2)cc(OC)c1OC`, for which half-maximal inhibition in data set [1] (IC50) was put at 5280 nM.

`COc1cc(C2=NN(C(C)=O)C(c3cc(OC)c(OC)c(OC)c3)C2)ccc1OCc1cn(CCNc2ccnc3cc(Cl)ccc23)nn1` (stereo unspecified) had an IC50 in data set [1] of 139 nM.

For the compound `COc1ccc(C2CC(c3ccc(OCc4cn(CCCNc5ccnc6cc(Cl)ccc56)nn4)cc3)=NN2C(C)=O)cc1OC` (stereo unspecified), it took 504 nM to reach half-maximal inhibition in data set [1] (IC50).

Take `CC(=O)N1N=C(c2ccc(OCc3cn(CCCNc4ccnc5cc(Cl)ccc45)nn3)cc2)CC1c1ccccc1` (stereo unspecified): in data set [1], half-maximal inhibition (IC50) was put at 3000 nM.

`O=C(/C=C/c1ccccc1)c1ccc(OCc2cn(CCNc3ccnc4cc(Cl)ccc34)nn2)cc1` registered an IC50 in data set [1] of 172 nM.

`COc1ccc(/C=C/C(=O)c2ccc(OCc3cn(CCNc4ccnc5cc(Cl)ccc45)nn3)c(OC)c2)cc1` showed a half-inhibitory concentration (IC50) in data set [1] of 1910 nM.

Compound `COc1ccc(C2CC(c3ccc(OCc4cn(CCCNc5ccnc6cc(Cl)ccc56)nn4)c(OC)c3)=NN2C(C)=O)cc1OC` (stereo unspecified) came in with an IC50 in data set [1] of 1680 nM.

Turning to `COc1ccc(C2CC(c3ccc(OCc4cn(CCNc5ccnc6cc(Cl)ccc56)nn4)c(OC)c3)=NN2C(C)=O)cc1` (stereo unspecified), the 50% inhibitory concentration (IC50) in data set [1] worked out at 58.7 nM; in data set [2], 32800 nM. The selectivity ratio in data set [3] was found to be 558.

For the compound `COc1ccc(C2CC(c3ccc(OCc4cn(CCNc5ccnc6cc(Cl)ccc56)nn4)cc3)=NN2C(C)=O)cc1` (stereo unspecified), the IC50 in data set [1] came to 131 nM; in data set [2] it was 29200 nM. Moreover, the selectivity ratio in data set [3] is 223.

Turning to `COc1cc(C2=NN(C(C)=O)C(c3cc(OC)c(OC)c(OC)c3)C2)ccc1OCc1cn(CCCNc2ccnc3cc(Cl)ccc23)nn1` (stereo unspecified), 1740 nM corresponded to half-maximal inhibition in data set [1] (IC50).

`COc1ccc(/C=C/C(=O)c2ccc(OCc3cn(CCCNc4ccnc5cc(Cl)ccc45)nn3)cc2)cc1` registered an IC50 in data set [1] of over 10000 nM.

In data set [1], `COc1cc(C2CC(c3ccc(OCc4cn(CCCNc5ccnc6cc(Cl)ccc56)nn4)cc3)=NN2C(C)=O)cc(OC)c1OC` (stereo unspecified) displayed a concentration for half-maximal inhibition (IC50) of 2420 nM.

In the case of `COc1cc(C(=O)/C=C/c2cc(OC)c(OC)c(OC)c2)ccc1OCc1cn(CCNc2ccnc3cc(Cl)ccc23)nn1`, in data set [1], half-maximal inhibition (IC50) required 355 nM.

For the compound `COc1cc(C2=NN(C(C)=O)C(c3ccccc3)C2)ccc1OCc1cn(CCNc2ccnc3cc(Cl)ccc23)nn1` (stereo unspecified), the IC50 in data set [1] turned out to be 286 nM.

For the compound `COc1cc(C2CC(c3ccc(OCc4cn(CCNc5ccnc6cc(Cl)ccc56)nn4)cc3)=NN2C(C)=O)cc(OC)c1OC` (stereo unspecified), in data set [1], the 50% inhibitory concentration (IC50) is 426 nM.

The compound `COc1ccc(/C=C/C(=O)c2ccc(OCc3cn(CCCNc4ccnc5cc(Cl)ccc45)nn3)cc2)cc1OC` came in with an IC50 in data set [1] of over 10000 nM.

As for `COc1ccc(C2CC(c3ccc(OCc4cn(CCCNc5ccnc6cc(Cl)ccc56)nn4)cc3)=NN2C(C)=O)cc1` (stereo unspecified), 498 nM corresponded to half-maximal inhibition in data set [1] (IC50).

For `COc1cc(C(=O)/C=C/c2cc(OC)c(OC)c(OC)c2)ccc1OCc1cn(CCCNc2ccnc3cc(Cl)ccc23)nn1`, 831 nM corresponded to half-maximal inhibition in data set [1] (IC50).

With `CC(=O)N1N=C(c2ccc(OCc3cn(CCNc4ccnc5cc(Cl)ccc45)nn3)cc2)CC1c1ccccc1` (stereo unspecified), it took 237 nM to reach half-maximal inhibition in data set [1] (IC50).

The compound `O=C(/C=C/c1ccccc1)c1ccc(OCc2cn(CCCNc3ccnc4cc(Cl)ccc34)nn2)cc1` registered an IC50 in data set [1] of over 10000 nM.

`COc1ccc(C2CC(c3ccc(OCc4cn(CCCNc5ccnc6cc(Cl)ccc56)nn4)c(OC)c3)=NN2C(C)=O)cc1` (stereo unspecified) came in with a half-inhibitory concentration (IC50) in data set [1] of 1570 nM.

Source of the values: ChEMBL document CHEMBL4130364, “4-Aminoquinoline-chalcone/-N-acetylpyrazoline conjugates: Synthesis and antiplasmodial evaluation” (Eur J Med Chem, 2017).
